Reference: patent US9808512B2, “Anti-cell proliferative compounds and methods of use” (KALOS Therapeutics, priority 2007, dated 2017)
“And” between values parts separate entries of the source, which are not always exact repeats. Equal values may be shown once. “Also recorded” adds a separate entry of the source.

Key:
[1] = tested on: Human Pancreatic Adenocarcinoma Cells (HPAC); test: HPAC cell viability, Calbiochem Rapid Cell Proliferation Kit, optical density at 450 nm; assay type: cell-based; settings: 48 hours; for Optical Densities in 96_Well Plate, Average: average of 5 replicate wells; for Optical Densities in 96_Well Plate: single replicate wells
Method: Human Pancreatic Adenocarcinoma Cells (HPAC) cells were obtained from ATCC and propagated in Dulbecco's modified Eagle's medium and Ham's F12 medium (DME-F12) (1:1) containing 2.5 mM glutamine, […], 5 ug/mL transferrin, 1 ng/mL EGF (epidermal growth factor), plus 5% FBS (fetal bovine serum). Cell cultures were incubated at 37° C., 5% CO2 in a 100% humidity atmosphere. The cells were routinely brought to confluence in T-flasks, rinsed with phosphate buffered saline (PBS), and treated with trypsin for 5 min at room temp. The trypsinized cells were rinsed from the plate with 10 mL medium and counted. Viability at subculturing was generally ≧95%.
Approximately 10,000 cells in 100 uL of medium were placed in each well of a 96-well plate and incubated over night. Peptides having the following sequences were used: Arg-15-Cys (RSSCAGAALSPLGAC; SEQ. ID NO:122); Pro-15-Val (PNEEAGAALSPLPEV; SEQ. ID NO:121); Ala-8-Leu (AGAALSPL; SEQ. ID NO:85); C-ANP 4-23 ([…]; SEQ. ID NO:124) and, VDL ([…]; SEQ. ID NO:125). The peptides were dissolved in PBS and sterile filtered. The peptides were diluted into the cell culture medium to the following final concentrations: 1, 0.3, 0.1, 0.03, and 0.01 uM. Each peptide was tested in 5 replicate wells. The cultures were incubated for an additional 48 hours at 37° C.
The viability of the cells was determined using a Calbiochem Rapid Cell Proliferation Kit (catalog number QIA127). Ten uL of Calbiochem color reagent was added to each well and incubated for an additional 1.5 hours at 37° C. Optical densities were read at 450 nm using a Molecular Devices ThermoMax microplate reader. The plate template is shown in Table I (unlabeled wells contained cells but no peptide and were used as blanks). Results are presented in Table I, and are graphically illustrated in FIGS. 1 and 2.

[2] = molecular target: T1, NPRA (Homo sapiens, UniProt P16066); settings: cited from earlier work
T1 sequence (P16066 33-1061): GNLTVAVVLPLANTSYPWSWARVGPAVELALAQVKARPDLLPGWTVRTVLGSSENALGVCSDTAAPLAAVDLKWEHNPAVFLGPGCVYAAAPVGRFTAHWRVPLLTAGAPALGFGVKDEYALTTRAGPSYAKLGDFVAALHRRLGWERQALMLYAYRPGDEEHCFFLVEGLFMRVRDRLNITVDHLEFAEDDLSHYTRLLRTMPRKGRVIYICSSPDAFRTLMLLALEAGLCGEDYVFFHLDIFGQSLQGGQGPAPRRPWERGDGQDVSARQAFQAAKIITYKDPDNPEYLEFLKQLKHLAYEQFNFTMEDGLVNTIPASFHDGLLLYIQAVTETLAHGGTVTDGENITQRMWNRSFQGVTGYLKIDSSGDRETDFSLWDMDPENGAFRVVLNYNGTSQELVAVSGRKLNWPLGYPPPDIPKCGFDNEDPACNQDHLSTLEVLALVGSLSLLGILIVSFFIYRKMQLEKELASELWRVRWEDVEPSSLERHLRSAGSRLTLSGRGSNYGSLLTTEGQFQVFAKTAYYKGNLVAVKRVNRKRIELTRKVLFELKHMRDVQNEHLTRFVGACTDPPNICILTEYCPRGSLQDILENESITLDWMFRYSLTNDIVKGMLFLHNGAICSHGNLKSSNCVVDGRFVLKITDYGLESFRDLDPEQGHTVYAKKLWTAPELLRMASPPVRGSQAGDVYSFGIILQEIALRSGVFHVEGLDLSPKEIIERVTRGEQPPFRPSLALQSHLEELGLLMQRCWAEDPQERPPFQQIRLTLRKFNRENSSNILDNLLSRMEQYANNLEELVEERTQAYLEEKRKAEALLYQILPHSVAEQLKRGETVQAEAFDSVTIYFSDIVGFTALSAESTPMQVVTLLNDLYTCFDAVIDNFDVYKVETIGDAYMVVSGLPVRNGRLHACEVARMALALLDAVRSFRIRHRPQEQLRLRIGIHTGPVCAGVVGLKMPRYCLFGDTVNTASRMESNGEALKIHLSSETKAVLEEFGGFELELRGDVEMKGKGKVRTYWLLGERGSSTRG

[3] = tested on: cancer cells; settings: known natriuretic peptides; cited from earlier work
[4] = molecular target: T2, NPRC (Homo sapiens, UniProt P17342); settings: cited from earlier work
T2 sequence (P17342 27-541): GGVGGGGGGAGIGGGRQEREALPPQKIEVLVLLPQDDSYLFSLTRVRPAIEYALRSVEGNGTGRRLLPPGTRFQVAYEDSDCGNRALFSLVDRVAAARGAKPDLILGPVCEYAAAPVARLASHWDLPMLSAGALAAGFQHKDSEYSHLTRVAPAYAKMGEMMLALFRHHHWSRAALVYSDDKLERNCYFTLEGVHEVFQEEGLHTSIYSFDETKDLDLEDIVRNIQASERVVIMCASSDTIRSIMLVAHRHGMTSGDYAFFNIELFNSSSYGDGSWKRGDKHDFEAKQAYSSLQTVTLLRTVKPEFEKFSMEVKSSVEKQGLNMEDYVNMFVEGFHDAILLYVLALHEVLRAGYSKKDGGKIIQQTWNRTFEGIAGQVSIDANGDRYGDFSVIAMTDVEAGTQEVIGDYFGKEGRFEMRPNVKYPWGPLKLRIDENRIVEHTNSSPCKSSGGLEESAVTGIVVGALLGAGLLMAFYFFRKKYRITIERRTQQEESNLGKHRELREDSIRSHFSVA

| Substance | Optical Densities in 96_Well Plate, Average ([1]; peptide 0.01 μM) | Optical Densities in 96_Well Plate ([1]; peptide 0.01 μM) | Optical Densities in 96_Well Plate, Average ([1]; peptide 0.03 μM) | Optical Densities in 96_Well Plate ([1]; peptide 0.03 μM) | Optical Densities in 96_Well Plate, Average ([1]; peptide 0.1 μM) | Optical Densities in 96_Well Plate ([1]; peptide 0.1 μM) | Optical Densities in 96_Well Plate, Average ([1]; peptide 0.3 μM) | Optical Densities in 96_Well Plate ([1]; peptide 0.3 μM) | Optical Densities in 96_Well Plate, Average ([1]; peptide 1.0 μM) | Optical Densities in 96_Well Plate ([1]; peptide 1.0 μM) | binding affinity at NPRA [2] | anticancer activity / relative potency [3] | binding affinity at NPRC [4] |
| --- | --- | --- | --- | --- | --- | --- | --- | --- | --- | --- | --- | --- | --- |
| AGAALSPL [Ala-8-Leu, ID NO:85] | 0.937 | 0.744 and 0.878 and 1.000 and 0.892 and 1.169 | 0.976 | 0.892 and 0.937 and 0.989 and 0.921 and 1.139 | 0.991 | 0.832 and 1.006 and 1.031 and 0.910 and 1.174 | 1.002 | 0.784 and 0.802 and 0.998 and 1.357 and 1.070 | 0.985 | 0.732 and 1.216 and 0.954 and 0.834 and 1.189 | – | – | – |
| ANP: Natriuretic peptide; Table III sequence SLRRSSCFGGRMDRIGAQSGLGCNSFRY, SEQ ID NO:126 [reference compound] | 0.908 | 0.981 and 0.815 and 0.822 and 0.965 and 0.955 | 0.935 | 0.948 and 0.882 and 0.911 and 0.951 and 0.982 | 0.838 | 0.884 and 0.889 and 0.907 and 0.862 and 0.650 | 0.974 | 1.001 and 0.889 and 0.837 and 0.934 and 1.209 | 0.914 | 1.018 and 0.819 and 0.954 and 0.829 and 0.951 | higher binding affinities | greater potency observed for ANP than CNP; also recorded: have anticancer activity | higher binding affinities |
| EVVPPQVLSEPNEEAGAALSPLPEVPPWTGEVSPAQR [KT-220 (VDL), ID NO:125] | – | – | – | – | – | – | – | – | – | – | – | have anticancer activity | – |
| PNEEAGAALSPLPEV [Pro-15-Val, ID NO:121] | 0.916 | 0.907 and 0.905 and 0.633 and 1.209 and 0.928 | 0.894 | 0.892 and 0.765 and 0.693 and 1.151 and 0.970 | 0.918 | 0.680 and 0.895 and 0.893 and 1.156 and 0.964 | 0.916 | 0.875 and 0.817 and 0.855 and 1.024 and 1.010 | 0.948 | 0.856 and 0.752 and 0.802 and 1.083 and 1.248 | – | – | – |
| RSSCAGAALSPLGAC [Arg-15-Cys, ID NO:122] | 0.934 | 0.974 and 0.920 and 0.863 and 0.840 and 1.075 | 0.982 | 1.093 and 0.894 and 0.789 and 0.955 and 1.178 | 0.950 | 1.016 and 0.917 and 0.801 and 0.990 and 1.025 | 0.897 | 0.988 and 0.957 and 0.668 and 0.913 and 0.959 | 0.962 | 1.155 and 1.005 and 0.787 and 0.944 and 0.919 | – | – | – |
| RSSCFGGRIDRIGAC [C-ANP 4-23, ID NO:124, reference compound] | 0.938 | 0.877 and 0.971 and 0.953 and 0.932 and 0.958 | 0.932 | 0.905 and 0.882 and 0.981 and 0.948 and 0.943 | 0.942 | 0.758 and 1.027 and 0.983 and 0.960 and 0.982 | 0.942 | 0.840 and 0.928 and 1.035 and 0.975 and 0.932 | 0.925 | 0.865 and 0.925 and 0.900 and 0.955 and 0.981 | – | have anticancer activity | – |
